Legend:
5-HT1D receptor = target: T1, 5-HT1D receptor (Homo sapiens, UniProt P28221); assay: PRESTO-TANGO β-arrestin recruitment; type: cell-based
T1 construct: TANGO fusion module (own knowledge, Kroeze et al.: C-terminal V2 tail, TEV site and tTA); 1000000068; host or cells: HTLA (HEK293-derived)
Experimental: (§1) Assessment of receptor activation by compounds at all human aminergic receptors were carried out using a modified version of the PRESTO-TANGO method. […] The plate was spun down, and 5 μl of a 1:25 dilution (in DPBS) of polyethylenimine (PEI) derivative (Transporter 5, Polysciences) was added (1:4 cDNA to PEI ratio) and incubated for 20 min at room temperature (RT). […] Luminescence signal was detected using a plate-reader (SPARK, Tecan) with 100-ms integration time and a 100-ms delay between well reads.

α2A receptor = target: T2, α2A receptor (Homo sapiens, UniProt P08913); assay: PRESTO-TANGO β-arrestin recruitment; type: cell-based; details: panel screen
T2 construct: TANGO fusion module (own knowledge, Kroeze et al.: C-terminal V2 tail, TEV site and tTA); 1000000068; host or cells: HTLA (HEK293-derived)
T2 sequence (P08913 1-465): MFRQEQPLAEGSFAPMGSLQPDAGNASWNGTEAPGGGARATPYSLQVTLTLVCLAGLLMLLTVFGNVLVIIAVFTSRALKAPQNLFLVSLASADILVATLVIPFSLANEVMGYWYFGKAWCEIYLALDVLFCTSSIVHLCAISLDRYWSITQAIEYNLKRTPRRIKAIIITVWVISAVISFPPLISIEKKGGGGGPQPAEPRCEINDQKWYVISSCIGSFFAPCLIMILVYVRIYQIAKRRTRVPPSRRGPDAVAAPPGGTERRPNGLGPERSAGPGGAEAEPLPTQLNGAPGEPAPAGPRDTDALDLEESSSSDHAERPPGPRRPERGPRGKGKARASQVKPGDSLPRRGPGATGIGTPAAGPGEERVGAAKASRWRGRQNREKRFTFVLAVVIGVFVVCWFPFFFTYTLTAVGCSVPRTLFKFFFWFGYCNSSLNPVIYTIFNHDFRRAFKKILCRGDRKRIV

5-HT1A receptor = target: T3, 5-HT1A receptor (Homo sapiens, UniProt P08908); assay: PRESTO-TANGO β-arrestin recruitment; type: cell-based; details: panel screen
T3 construct: TANGO fusion module (own knowledge, Kroeze et al.: C-terminal V2 tail, TEV site and tTA); 1000000068; host or cells: HTLA (HEK293-derived)
T3 sequence (P08908 1-422): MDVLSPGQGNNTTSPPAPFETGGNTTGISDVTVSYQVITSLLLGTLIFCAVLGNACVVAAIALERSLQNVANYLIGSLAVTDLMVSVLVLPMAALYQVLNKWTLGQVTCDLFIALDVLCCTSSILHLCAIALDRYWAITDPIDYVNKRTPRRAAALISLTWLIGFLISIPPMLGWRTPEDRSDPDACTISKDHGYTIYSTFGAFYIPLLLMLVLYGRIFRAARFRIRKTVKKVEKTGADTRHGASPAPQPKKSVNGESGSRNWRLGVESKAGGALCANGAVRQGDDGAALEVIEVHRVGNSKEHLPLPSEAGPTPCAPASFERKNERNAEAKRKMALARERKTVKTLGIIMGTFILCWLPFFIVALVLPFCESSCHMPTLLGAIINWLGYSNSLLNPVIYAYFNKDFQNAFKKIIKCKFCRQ

hTAAR1 = target: T4, hTAAR1 (Homo sapiens, UniProt Q96RJ0); assay: G protein (mini-Gs) recruitment luminescence complementation assay, agonist mode; type: cell-based
T4 construct: expressed in transfected cells; host or cells: Expi293F
T4 sequence (Q96RJ0 1-339): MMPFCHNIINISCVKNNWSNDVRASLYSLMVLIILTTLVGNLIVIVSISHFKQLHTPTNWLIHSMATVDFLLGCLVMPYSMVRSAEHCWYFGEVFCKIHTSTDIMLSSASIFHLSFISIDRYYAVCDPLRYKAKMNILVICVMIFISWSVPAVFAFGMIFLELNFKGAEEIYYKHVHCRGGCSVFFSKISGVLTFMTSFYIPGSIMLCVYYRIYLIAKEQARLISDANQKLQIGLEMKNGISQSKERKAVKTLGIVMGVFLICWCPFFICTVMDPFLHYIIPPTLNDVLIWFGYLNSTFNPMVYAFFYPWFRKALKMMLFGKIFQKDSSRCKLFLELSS
Experimental: The 62 predicted ligands were purchased from commercial vendors and tested for activity at a concentration of 20 μM in a luminescence complementation–based assay measuring recruitment of mini-Gs to the human TAAR1 ([38]).
To monitor TAAR1 activation by compounds, we used our previously described system. […] Cells were then reseeded in solid white, 96-well plates (Corning) with 90 μl of cell suspension per well. Luminescence was read using a plate reader for 5 min (SPARK 10 M, Tecan) before the addition of compounds to ensure signal stability. Ten microliters of each compound diluted in DPBS was added, and luminescence from each well was read for 10 min, with 100-ms read time per well. The A2AR counter-screen was performed using the same protocol. In these experiments, the hTAAR1 was replaced by a C-terminally SmBiT-tagged hA2AR construct.

H1 receptor = target: T5, H1 receptor (Homo sapiens, UniProt P35367); assay: PRESTO-TANGO β-arrestin recruitment; type: cell-based; details: panel screen, 10 μM; read-out: agonist activity, % of control
T5 construct: TANGO fusion module (own knowledge, Kroeze et al.: C-terminal V2 tail, TEV site and tTA); 1000000068; host or cells: HTLA (HEK293-derived)

D2 receptor = target: T6, D2 receptor (Homo sapiens, UniProt P14416); assay: cell-based; type: cell-based
T6 construct: TANGO fusion module (own knowledge, Kroeze et al.: C-terminal V2 tail, TEV site and tTA); 1000000068; host or cells: HTLA (HEK293-derived)
Experimental: as §1

M2 receptor = target: T7, M2 receptor (Homo sapiens, UniProt P08172); assay: PRESTO-TANGO β-arrestin recruitment; type: cell-based
T7 construct: TANGO fusion module (own knowledge, Kroeze et al.: C-terminal V2 tail, TEV site and tTA); 1000000068; host or cells: HTLA (HEK293-derived)
T7 sequence (P08172 1-466): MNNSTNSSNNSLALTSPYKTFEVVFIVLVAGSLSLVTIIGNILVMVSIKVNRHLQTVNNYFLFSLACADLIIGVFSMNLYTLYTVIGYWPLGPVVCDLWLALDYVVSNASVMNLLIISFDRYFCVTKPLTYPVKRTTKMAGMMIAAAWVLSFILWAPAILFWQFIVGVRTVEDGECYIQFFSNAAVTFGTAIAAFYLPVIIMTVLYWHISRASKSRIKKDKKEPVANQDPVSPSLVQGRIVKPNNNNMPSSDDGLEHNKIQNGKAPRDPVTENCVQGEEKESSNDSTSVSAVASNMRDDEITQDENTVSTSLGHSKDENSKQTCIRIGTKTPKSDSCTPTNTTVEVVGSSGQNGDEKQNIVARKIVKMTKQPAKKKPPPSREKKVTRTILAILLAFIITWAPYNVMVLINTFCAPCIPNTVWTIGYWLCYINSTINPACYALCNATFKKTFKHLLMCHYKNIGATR

TAAR1 = details: ref Zilberg et al. ([51]); cited from earlier work

T1 sequence (P28221 whole entry, the tested form may be a part): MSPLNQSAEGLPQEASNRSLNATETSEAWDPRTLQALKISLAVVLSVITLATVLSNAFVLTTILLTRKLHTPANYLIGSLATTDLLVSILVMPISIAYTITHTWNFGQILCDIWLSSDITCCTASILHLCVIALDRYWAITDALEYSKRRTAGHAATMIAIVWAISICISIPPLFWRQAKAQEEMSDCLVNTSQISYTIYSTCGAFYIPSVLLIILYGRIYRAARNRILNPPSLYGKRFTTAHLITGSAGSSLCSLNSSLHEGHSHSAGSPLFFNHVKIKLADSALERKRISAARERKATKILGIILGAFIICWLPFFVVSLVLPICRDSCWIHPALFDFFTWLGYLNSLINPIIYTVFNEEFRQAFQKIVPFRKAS
T6 sequence (P14416 whole entry, the tested form may be a part): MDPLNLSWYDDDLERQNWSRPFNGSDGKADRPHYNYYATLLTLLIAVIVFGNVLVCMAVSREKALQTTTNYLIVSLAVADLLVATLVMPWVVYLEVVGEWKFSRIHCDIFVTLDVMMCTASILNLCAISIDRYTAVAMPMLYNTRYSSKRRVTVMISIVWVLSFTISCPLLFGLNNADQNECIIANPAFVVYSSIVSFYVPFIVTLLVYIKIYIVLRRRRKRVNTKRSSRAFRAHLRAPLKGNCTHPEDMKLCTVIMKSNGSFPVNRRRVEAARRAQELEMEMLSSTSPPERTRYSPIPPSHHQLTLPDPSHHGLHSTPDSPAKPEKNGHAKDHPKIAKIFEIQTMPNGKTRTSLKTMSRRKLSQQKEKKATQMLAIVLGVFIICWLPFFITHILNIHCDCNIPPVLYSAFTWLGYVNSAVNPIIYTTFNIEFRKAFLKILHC
T5 sequence (P35367 whole entry, the tested form may be a part): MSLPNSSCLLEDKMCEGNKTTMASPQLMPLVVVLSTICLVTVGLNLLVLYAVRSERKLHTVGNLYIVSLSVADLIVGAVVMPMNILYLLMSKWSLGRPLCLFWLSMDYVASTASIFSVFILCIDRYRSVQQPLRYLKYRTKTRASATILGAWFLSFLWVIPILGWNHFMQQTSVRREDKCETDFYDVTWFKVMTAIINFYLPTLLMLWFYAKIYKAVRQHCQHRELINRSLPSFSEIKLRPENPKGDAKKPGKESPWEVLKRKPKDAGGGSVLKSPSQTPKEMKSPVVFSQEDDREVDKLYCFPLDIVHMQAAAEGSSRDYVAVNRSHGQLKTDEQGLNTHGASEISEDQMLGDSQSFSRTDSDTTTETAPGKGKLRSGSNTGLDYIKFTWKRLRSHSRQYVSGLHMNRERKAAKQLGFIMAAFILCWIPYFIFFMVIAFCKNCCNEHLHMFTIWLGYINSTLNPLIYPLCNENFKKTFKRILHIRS

Row | SMILES | EC50 (5-HT1D receptor) | Emax (5-HT1D receptor) | agonism at the 5-HT1D receptor (5-HT1D receptor; panel screen) | agonism at the α2A receptor (α2A receptor) | activation of 5-HT1A receptor (5-HT1A receptor) | agonist type (hTAAR1; TAAR1) | EC50 (hTAAR1; TAAR1, G protein recruitment assay, read-out: pEC50 (converted)) | fold more potent than Ulotaront (hTAAR1; TAAR1 G protein recruitment) | fold more potent than the reference agonist β-PEA (hTAAR1; TAAR1 G protein recruitment) | Emax (hTAAR1; relative to the effect of the reference agonist β-PEA, read-out: Emax) | activity at 10 µM (H1 receptor) | EC50 (D2 receptor; concentration-response curves) | Emax (D2 receptor; concentration-response curves) | agonism at the D2 receptor (D2 receptor; panel screen) | EC50 (M2 receptor; concentration-response curves) | Emax (M2 receptor; concentration-response curves) | activity at 10 µM (M2 receptor; panel screen, 10 μM, read-out: agonist activity, % of control) | TAAR1 agonism (TAAR1)
1 | C1=C(c2ccco2)CNCC1 [Compound 30] | > 1 µM | 52% | agonism | agonism | did not observe a considerable activation | full agonist | 0.0316 µM | > 25 fold | ~ 10 fold | 112% | 70% | > 1 µM | 54% | agonism | 10 µM | 125% | 55% | 
2 | CN1CC2c3ccccc3Oc3ccc(Cl)cc3C2C1 (stereo not drawn) [asenapine] |  |  |  |  |  |  |  |  |  |  |  |  |  |  |  |  |  | potent TAAR1 agonist

— publication PMC11305387, “AlphaFold accelerated discovery of psychotropic agonists targeting the trace amine–associated receptor 1” (Science Advances, 2024)
